Laboratory results as given in US20240116946A1 (Gilead Sciences, Inc., priority 2022, published 2024).
Like-named read-outs stand apart in the source and are kept apart here.

Tests used:
[1] = target: recombinant SARS-CoV-2 Main protease (Mpro) (Severe acute respiratory syndrome coronavirus 2 (2019-nCoV) (SARS-CoV-2), UniProt P0DTD1); test: Cov Mpro Biochemical IC50 Assay; settings: recombinant SARS-CoV-2 Mpro 7.5 nM, fluorogenic peptide substrate 40 μM; read-out: MPro IC50
[2] = test system: SARS-CoV-2-NLuc; test: microbe, parasite or virus in culture; type: cell-based, SARS Coronavirus 2
[3] = Severe acute respiratory syndrome coronavirus, 48 h, read-out: MPro EC50
[4] = Severe acute respiratory syndrome coronavirus, 48 h; read-out: MPro EC50

| SMILES | IC50 [1] [nM] | EC50 [2, 3] [nM] | EC50 ([2]; read-out: MPro EC50) [nM] | EC50 [2, 4] [nM] |
| --- | --- | --- | --- | --- |
| N#Cc1ccncc1-c1cc2[nH]c(=O)n(-c3cncc4ccccc34)c(=O)c2s1 [Example 535] | 39.6 | 432 |  |  |
| COc1cccc(C#N)c1-c1cc2[nH]c(=O)n(-c3cncc4ccccc34)c(=O)c2s1 [Example 536] | 21.2 | 46.4 |  |  |
| COc1cc(-c2cc3[nH]c(=O)n(-c4cncc5ccccc45)c(=O)c3s2)c(C#N)cc1F [Example 537] | 6.15 | 19.2 |  |  |
| N#Cc1ncccc1-c1cc2[nH]c(=O)n(-c3cncc4ccccc34)c(=O)c2s1 [Example 538] | 59.8 | 826 |  |  |
| COc1ccc(-c2cc3[nH]c(=O)n(-c4cncc5ccccc45)c(=O)c3s2)c(C#N)c1 [Example 539] | 141 | 675 |  |  |
| N#Cc1cc(F)c(F)cc1-c1cc2[nH]c(=O)n(-c3cncc4ccccc34)c(=O)c2s1 [Example 540] | 911 | > 50000 |  |  |
| COc1cnc(C#N)c(-c2cc3[nH]c(=O)n(-c4cncc5ccccc45)c(=O)c3s2)c1 [Example 541] | 17.6 | 237 |  |  |
| COc1cc(-c2cc3[nH]c(=O)n(-c4cncc5ccccc45)c(=O)c3s2)c(C#N)cn1 [Example 542] | 249 | 1200 |  |  |
| COc1cc(-c2cc3[nH]c(=O)n(-c4cncc5cccnc45)c(=O)c3s2)c(C#N)cc1F [Example 543] | 9.91 | 240 |  |  |
| COc1cc(C#N)c(-c2cc3[nH]c(=O)n(-c4cncc5ccccc45)c(=O)c3s2)cc1OC [Example 544] | 16.8 | 202 |  |  |
| N#Cc1ccc(Cl)c(-c2cc3[nH]c(=O)n(-c4cncc5ccccc45)c(=O)c3s2)c1 [Example 545] | 29.4 | 112 |  |  |
| Cc1ccc(C#N)cc1-c1cc2[nH]c(=O)n(-c3cncc4ccccc34)c(=O)c2s1 [Example 546] | 15.4 | 164 |  |  |
| N#Cc1ccc(F)c(-c2cc3[nH]c(=O)n(-c4cncc5ccccc45)c(=O)c3s2)c1 [Example 547] | 170 | > 1000 |  |  |
| Cc1cc(Cl)c(-c2cc3[nH]c(=O)n(-c4cncc5ccccc45)c(=O)c3s2)cc1C#N [Example 548] | 7.55 | 114 |  |  |
| COc1cc(-c2cc3[nH]c(=O)n(-c4cncc5ccc(C(C)(C)O)cc45)c(=O)c3s2)c(Cl)cc1F [Example 551, 6-(2-chloro-4-fluoro-5-methoxyphenyl)-3-(6-(2-hydroxypropan-2-yl)isoquinolin-4-yl)thieno[3,2-d]pyrimidine-2,4(1H,3H)-dione] | 5.36 | 23.6 |  |  |
| COc1ccc(Cl)c(-c2cc3[nH]c(=O)n(-c4cncc5ccc(CO)cc45)c(=O)c3s2)c1 [Example 552, 6-(2-chloro-5-methoxyphenyl)-3-(6-(hydroxymethyl)isoquinolin-4-yl)thieno[3,2-d]pyrimidine-2,4(1H,3H)-dione] | 7.13 | 12.4 |  |  |
| COc1cc(-c2cc3[nH]c(=O)n(-c4cncc5cccnc45)c(=O)c3s2)c(Cl)cc1F [Example 553, 6-(2-chloro-4-fluoro-5-methoxy-phenyl)-3-(1,6-naphthyridin-8-yl)-1H-thieno[3,2-d]pyrimidine-2,4-dione] | 7.58 | 12 |  |  |

| SMILES | IC50 [1] [nM] | EC50 [2, 3] [nM] | EC50 ([2]; read-out: MPro EC50) [nM] | EC50 [2, 4] [nM] |
| --- | --- | --- | --- | --- |
| Cc1cccc2cncc(-n3c(=O)[nH]c4cc(-c5ccccc5Cl)sc4c3=O)c12 [Example 558, 6-(2-chlorophenyl)-3-(5-methylisoquinolin-4-yl)thieno[3,2-d]pyrimidine-2,4(1H,3H)-dione] | 3.39 | 17.5 |  |  |
| COc1ccc(Cl)c(-c2cc3[nH]c(=O)n(-c4cncc5cccc(C)c45)c(=O)c3s2)c1 [Example 559] | 6.23 | 9.19 |  |  |
| COc1cc(-c2cc3[nH]c(=O)n(-c4cncc5cccc(C)c45)c(=O)c3s2)c(Cl)cc1F [Example 560] | < 2.54 | 6.1 |  |  |
| O=c1[nH]c2cc(-c3c(Cl)cccc3CC3CCOCC3)sc2c(=O)n1-c1cncc2ccccc12 [Example 561, 6-[2-chloro-6-(tetrahydropyran-4-ylmethyl)phenyl]-3-(4-isoquinolyl)-1H-thieno[3,2-d]pyrimidine-2,4-dione] | 142 | 177 |  |  |
| COc1ccc2cncc(-n3c(=O)[nH]c4cc(-c5c(Cl)cccc5-c5cc(C)c6ncnn6c5)sc4c3=O)c2c1 [Example 562, 6-[2-chloro-6-(8-methyl-[1,2,4]triazolo[1,5-a]pyridin-6-yl)phenyl]-3-(6-methoxy-4-isoquinolyl)-1H-thieno[3,2-d]pyrimidine-2,4-dione] | < 2.54 | 5.06 |  |  |
| COc1ccc2cncc(-n3c(=O)[nH]c4cc(-c5c(Cl)cccc5C5=CCOCC5)sc4c3=O)c2c1 [Example 563] | 6.96 | 10 |  |  |
| COc1ccc2cncc(-n3c(=O)[nH]c4cc(-c5c(Cl)cccc5-c5cn6ncnc6c6c5CCC6)sc4c3=O)c2c1 [Example 564] | 14.6 | 52.5 |  |  |
| COc1ccc(Cl)c(-c2cc3[nH]c(=O)n(-c4cncc5ccc(C(=O)N6CCOCC6)cc45)c(=O)c3s2)c1 [Example 566, 6-(2-chloro-5-methoxy-phenyl)-3-[6-(morpholine-4-carbonyl)-4-isoquinolyl]-1H-thieno[3,2-d]pyrimidine-2,4-dione] | 9.83 | 20.8 |  |  |
| Cn1nncc1-c1cccc(Cl)c1-c1ccc2c(=O)n(-c3cncc4ccccc34)c(=O)[nH]c2c1 [Example 567, 7-[2-chloro-6-(3-methyltriazol-4-yl)phenyl]-3-(4-isoquinolyl)-1H-quinazoline-2,4-dione] | 50.9 |  | 228 |  |
| COc1ccc(-c2cc(C)c3ncnn3c2)c(-c2ccc3c(=O)n(-c4cncc5ccccc45)c(=O)[nH]c3c2)c1 [Example 568, 3-(4-isoquinolyl)-7-[5-methoxy-2-(8-methyl-[1,2,4]triazolo[1,5-a]pyridin-6-yl)phenyl]-1H-quinazoline-2,4-dione] | 5670 | 2640 |  |  |
| COc1ccc(Cl)c(-c2cc3[nH]c(=O)n(-c4cncc5ccc(N6CCOCC6=O)cc45)c(=O)c3s2)c1 [Example 573, 6-(2-chloro-5-methoxyphenyl)-3-(6-(3-oxomorpholino)isoquinolin-4-yl)thieno[3,2-d]pyrimidine-2,4(1H,3H)-dione] | 3.26 |  |  | 20.1 |
| COc1ccc(Cl)c(-c2cc3[nH]c(=O)n(-c4cncc5ccc(N6C(=O)COC[C@@H]6C)cc45)c(=O)c3s2)c1 [Example 574] | 6.37 |  | 18.5 |  |
| COc1ccc(Cl)c(-c2cc3[nH]c(=O)n(-c4cncc(CCC(=O)N5CCOCC5)c4)c(=O)c3s2)c1 [Example 575, 6-(2-chloro-5-methoxy-phenyl)-3-[5-(3-morpholino-3-oxo-propyl)-3-pyridyl]-1H-thieno[3,2-d]pyrimidine-2,4-dione] | 6.66 |  |  | 235 |
| O=c1[nH]c2cc(-c3ccccc3Cl)sc2c(=O)n1-c1cncc(C(F)(F)F)c1 [Example 576, 6-(2-chlorophenyl)-3-(5-(trifluoromethyl)pyridin-3-yl)thieno[3,2-d]pyrimidine-2,4(1H,3H)-dione] | 174 |  |  | 153 |
| CC(C)(C)c1cncc(-n2c(=O)[nH]c3cc(-c4ccccc4Cl)sc3c2=O)c1 [Example 577] | > 50000 |  |  | 12100 |
| O=c1[nH]c2cc(-c3ccccc3Cl)ccc2c(=O)n1-c1cncc(C(F)(F)F)c1 [Example 578] | > 50000 |  |  | 9870 |
